According to patent US4241064A, “9H-Pyrido[3,4-b]indole derivatives” (Nippon Shinyaku Co. Ltd., priority 1978, dated 1980):
Read-outs that look alike come from different tables or passages of the source. Each block holds one molecule with its values, some of them ahead of it.

What was measured:
xanthine-oxidase = xanthine-oxidase (Bos taurus, UniProt P80457); assay: xanthine-oxidase inhibitory activity (pre-incubation 5 min, then 10 μM xanthine; Kalker); assay type: biochemical; details: Table I; phosphate buffer pH 7.5, 10 μM xanthine; read-out: IC50 (xanthine-oxidase inhibition) (converted)
Text: The foregoing compounds have the property of inhibiting the enzyme xanthine-oxidase. As is known, xanthine-oxidase inhibitors improve hyperuricacidemia by suppressing the formation of uric acid and, as such, find use as therapeutic and prophylactic agents in the treatment of gout, calculus in the urinary organ, tissue degeneration of the circulatory system, and the like. The xanthine-oxidase inhibitory activity is expressed in terms of the concentration of the agent at which a 50% inhibition of xanthine-oxidase activity is observed (IC50). This can be readily measured pre-incubation of test specimens at varying concentrations in phosphate buffer (pH 7.5) for 5 minutes, then adding 10 μM of xanthine, measuring the enzyme activity (Kalker), and comparing the assay result with the activity of a control to determine the percent inhibition. (The IC50 value being derived from a plot of concentration versus percent inhibition).
According to the present invention, commercial picrasma wood, dry pulverized picrasma wood or, preferably, the dry pulverized powder of its heart wood, is extracted with a polar organic solvent such as water or methanol and the extract is then concentrated to yield a whole picrasma extract. This extract is then fractionated as for example by Sephadex LH or silica gel chromatography. The fractions are assayed for xanthine-oxidase inhibitory activity and the active fraction this then purified as by recrystallization.

Ehrlich ascites cells [1] = assay: survival of mice transplanted with Ehrlich ascites cells, i.p. dosing for 7 consecutive days (potentiation of mitomycin C); assay type: in vivo, ddY mice; details: for Survival Rate (%): i.p. 7 days, compound 1 50 mg/kg/day, mitomycin C 0.5 mg/kg/day
Description: (§1) Thus, ddY mice (male, body weights ca 18 g) were reared for a week and 1×10^6 Ehrlich ascites cells/animal were intraperitoneally transplanted. After 24 hours, mitomycin C or/and compound 1 were administered intraperitoneally for 7 consecutive days.

Ehrlich ascites cells [2] = details: single i.p. at day 6, mitomycin C 1 mg/kg, compound 1 50 mg/kg
Description: as §1

Chain of xanthine-oxidase (P80457 whole entry): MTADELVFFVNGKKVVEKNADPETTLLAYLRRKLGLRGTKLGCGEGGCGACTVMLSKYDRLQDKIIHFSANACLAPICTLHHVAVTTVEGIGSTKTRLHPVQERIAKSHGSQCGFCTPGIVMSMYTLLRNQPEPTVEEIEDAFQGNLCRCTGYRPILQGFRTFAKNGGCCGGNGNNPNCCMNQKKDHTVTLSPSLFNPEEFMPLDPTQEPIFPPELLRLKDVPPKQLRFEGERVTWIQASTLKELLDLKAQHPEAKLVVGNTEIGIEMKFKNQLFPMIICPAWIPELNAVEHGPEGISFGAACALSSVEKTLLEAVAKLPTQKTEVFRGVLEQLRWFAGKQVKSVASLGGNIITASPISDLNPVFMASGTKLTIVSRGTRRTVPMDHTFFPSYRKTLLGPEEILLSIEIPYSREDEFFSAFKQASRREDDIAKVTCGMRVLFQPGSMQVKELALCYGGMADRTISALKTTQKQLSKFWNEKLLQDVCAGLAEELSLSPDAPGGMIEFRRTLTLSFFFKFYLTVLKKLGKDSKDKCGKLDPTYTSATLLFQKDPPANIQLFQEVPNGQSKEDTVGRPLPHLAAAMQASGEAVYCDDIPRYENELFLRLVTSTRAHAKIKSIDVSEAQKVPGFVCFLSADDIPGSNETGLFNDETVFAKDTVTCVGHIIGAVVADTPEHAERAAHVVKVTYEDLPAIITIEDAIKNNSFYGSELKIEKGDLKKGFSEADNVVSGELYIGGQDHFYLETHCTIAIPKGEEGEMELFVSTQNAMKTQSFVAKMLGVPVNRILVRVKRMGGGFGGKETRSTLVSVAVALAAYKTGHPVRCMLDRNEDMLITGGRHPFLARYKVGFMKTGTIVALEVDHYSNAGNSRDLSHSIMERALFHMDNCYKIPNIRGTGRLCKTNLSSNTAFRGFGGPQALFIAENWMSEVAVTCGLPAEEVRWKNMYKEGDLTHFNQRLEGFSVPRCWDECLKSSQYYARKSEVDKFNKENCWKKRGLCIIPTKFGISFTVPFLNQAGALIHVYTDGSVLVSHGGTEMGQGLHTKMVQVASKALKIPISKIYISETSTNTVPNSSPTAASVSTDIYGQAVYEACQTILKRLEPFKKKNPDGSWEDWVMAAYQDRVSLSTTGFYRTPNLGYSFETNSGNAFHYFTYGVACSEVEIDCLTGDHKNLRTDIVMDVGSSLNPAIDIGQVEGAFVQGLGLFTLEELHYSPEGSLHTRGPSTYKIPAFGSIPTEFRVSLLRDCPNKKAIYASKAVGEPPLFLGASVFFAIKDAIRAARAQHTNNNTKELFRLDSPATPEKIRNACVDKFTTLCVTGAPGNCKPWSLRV

Structure (SMILES): O=Cc1ncc(O)c2c1[nH]c1ccccc12 [Compound 1, 1-formyl-4-hydroxy-9H-pyrido[3,4-b]indole]
IC50 (xanthine-oxidase): 3.06 nM | Survival Rate (%) (Ehrlich ascites cells [1]; Day 16): 100% | Survival Rate (%) (Ehrlich ascites cells [1]; Day 17): 90% | Survival Rate (%) (Ehrlich ascites cells [1]; Day 18): 80% | Survival Rate (%) (Ehrlich ascites cells [1]; Day 19): 80% | Survival Rate (%) (Ehrlich ascites cells [1]; Day 20): 70% | Survival Rate (%) (Ehrlich ascites cells [1]; Day 21): 70% | Survival Rate (%) (Ehrlich ascites cells [1]; Day 22): 40% | Survival Rate (%) (Ehrlich ascites cells [1]; Day 23): 30% | Survival Rate (%) (Ehrlich ascites cells [1]; Day 24): 10% | Survival Rate (%) (Ehrlich ascites cells [1]; Day 25): 10% | Survival Rate (%) (Ehrlich ascites cells [1]; Day 26): 10% | potentiation of the antitumor activity of mitomycin C and similar antibiotics (Ehrlich ascites cells [1]; result in words, conventional laboratory models): significant potentiation of the antitumor activity of mitomycin C

Structure (SMILES): O=Cc1nccc2c1[nH]c1ccccc12 [H H CHO]
IC50 (xanthine-oxidase): 4080 nM

Structure (SMILES): O=Cc1nc(O)cc2c1[nH]c1ccccc12 [H OH CHO, 1-Formyl-3-Hydroxy-9H-Pyrido[3,4-b]Indole]
IC50 (xanthine-oxidase): 1790 nM

Structure (SMILES): CO[C@@]12[C@H](COC(N)=O)C3=C(C(=O)C(C)=C(N)C3=O)N1C[C@@H]1N[C@@H]12 [Mitomycin, mitomycin C]
No. Surviving (Ehrlich ascites cells [2]; Day 10): 7 | No. Surviving (Ehrlich ascites cells [2]; Day 11): 7 | No. Surviving (Ehrlich ascites cells [2]; Day 12): 7 | No. Surviving (Ehrlich ascites cells [2]; Day 13): 7 | No. Surviving (Ehrlich ascites cells [2]; Day 14): 7 | No. Surviving (Ehrlich ascites cells [2]; Day 15): 7 | No. Surviving (Ehrlich ascites cells [2]; Day 16): 7 | No. Surviving (Ehrlich ascites cells [2]; Day 17): 7 | No. Surviving (Ehrlich ascites cells [2]; Day 18): 5 | No. Surviving (Ehrlich ascites cells [2]; Day 19): 5 | No. Surviving (Ehrlich ascites cells [2]; Day 20): 4 | No. Surviving (Ehrlich ascites cells [2]; Day 21): 4 | No. Surviving (Ehrlich ascites cells [2]; Day 22): 4 | No. Surviving (Ehrlich ascites cells [2]; Day 23): 2 | No. Surviving (Ehrlich ascites cells [2]; Day 24): 2 | No. Surviving (Ehrlich ascites cells [2]; Day 25): 1 | No. Surviving (Ehrlich ascites cells [2]; Day 26): 1 | No. Surviving (Ehrlich ascites cells [2]; Day 27): 1 | No. Surviving (Ehrlich ascites cells [2]; Day 28): 1 | Survival Rate (%) (Ehrlich ascites cells [1]; Day 16): 100% | Survival Rate (%) (Ehrlich ascites cells [1]; Day 17): 100% | Survival Rate (%) (Ehrlich ascites cells [1]; Day 18): 100% | Survival Rate (%) (Ehrlich ascites cells [1]; Day 19): 100% | Survival Rate (%) (Ehrlich ascites cells [1]; Day 20): 100% | Survival Rate (%) (Ehrlich ascites cells [1]; Day 21): 100% | Survival Rate (%) (Ehrlich ascites cells [1]; Day 22): 90% | Survival Rate (%) (Ehrlich ascites cells [1]; Day 23): 90% | Survival Rate (%) (Ehrlich ascites cells [1]; Day 24): 90% | Survival Rate (%) (Ehrlich ascites cells [1]; Day 25): 90% | Survival Rate (%) (Ehrlich ascites cells [1]; Day 26): 90% | Survival Rate (%) (Ehrlich ascites cells [1]; Day 27): 90% | Survival Rate (%) (Ehrlich ascites cells [1]; Day 28): 80% | Survival Rate (%) (Ehrlich ascites cells [1]; Day 29): 70% | Survival Rate (%) (Ehrlich ascites cells [1]; Day 30): 70% | Survival Rate (%) (Ehrlich ascites cells [1]; Day 33): 70% | Survival Rate (%) (Ehrlich ascites cells [1]; Day 34): 60% | Survival Rate (%) (Ehrlich ascites cells [1]; Day 38): 60% | Survival Rate (%) (Ehrlich ascites cells [1]; Day 39): 50% | Survival Rate (%) (Ehrlich ascites cells [1]; Day 48): 50% | Survival Rate (%) (Ehrlich ascites cells [1]; Day 49): 40% | Survival Rate (%) (Ehrlich ascites cells [1]; Day 52): 40% | Survival Rate (%) (Ehrlich ascites cells [1]; Day 53): 30% | Survival Rate (%) (Ehrlich ascites cells [1]; Day 56): 30% | Survival Rate (%) (Ehrlich ascites cells [1]; Day 57): 20% | Survival Rate (%) (Ehrlich ascites cells [1]; Day 58): 20% | Survival Rate (%) (Ehrlich ascites cells [1]; Day 59): 20% | Survival Rate (%) (Ehrlich ascites cells [1]; Day 60 after transplantation): 20%

Structure (SMILES): CC(=O)Oc1cnc(C=O)c2[nH]c3ccccc3c12 [OCOCH3 H CHO, 1-Formyl-4-Acetoxy-9H-Pyrido[3,4-b]Indole]
IC50 (xanthine-oxidase): 6.69 nM

Structure (SMILES): OCc1ncc(O)c2c1[nH]c1ccccc12 [OH H CH2 OH, 1-Hydroxymethyl-4-Hydroxy-9H-pyrido[3,4-b]Indole]
IC50 (xanthine-oxidase): 336 nM

Next, values leading:

IC50 (xanthine-oxidase): 21700 nM
Structure (SMILES): OCc1nccc2c1[nH]c1ccccc12 [H H CH2 OH, 1-Hydroxymethyl-9H-Pyrido[3,4-b]Indole]

IC50 (xanthine-oxidase): 177000 nM
Structure (SMILES): COC(=O)c1nccc2c1[nH]c1ccccc12 [H H COOCH3, 1-carbomethoxy-9H-pyrido[3,4-b]indole]

IC50 (xanthine-oxidase): 78400 nM
Structure (SMILES): COC(=O)c1ncc(O)c2c1[nH]c1ccccc12 [OH H COOCH3, 1-Carbomethoxy-4-Hydroxy-9H-Pyrido[3,4-b]Indole]

IC50 (xanthine-oxidase): 1100 nM
Structure (SMILES): O=C(O)c1ncc(O)c2c1[nH]c1ccccc12 [OH H COOH, 1-Carboxy-4-Hydroxy-9H-Pyrido[3,4-b]Indole]
